# Measurements taken from ChEMBL document CHEMBL4513141, “CO-ADD screening of NIH (USA) - Clinical Collection” (2021).
# Counter-ions that a name gives are not always drawn.
# Experiments:
# Candida albicans = assay: microbe, parasite or virus in culture; details: ATCC 90028, ASSAY_TEST Inhibition of Fungal Growth, detection method Absorption (OD530), plate type 384well, NBS, CORNING #3640
# Description: Antifungal activity against Candida albicans ATCC 90028 (CO-ADD:FG_001); MIC in YNB media using NBS plates, by OD630
# Staphylococcus aureus = assay: microbe, parasite or virus in culture; details: ATCC 43300, 18 h, ASSAY_TEST Inhibition of Bacterial Growth, detection method Absorption (OD600), MEDIA CAMHB, plate type 384well, NBS, CORNING #3640
# Description: Antibacterial activity against Staphylococcus aureus MRSA ATCC 43300 (CO-ADD:GP_020); MIC in CAMBH media, using NBS plates, by OD(600)
# Pseudomonas aeruginosa = assay: microbe, parasite or virus in culture; details: ATCC 27853, 18 h, ASSAY_TEST Inhibition of Bacterial Growth, detection method Absorption (OD600), MEDIA CAMHB, plate type 384well, NBS, CORNING #3640
# Description: Antibacterial activity against Pseudomonas aeruginosa ATCC 27853 (CO-ADD:GN_042); MIC in CAMBH media using NBS plates, by OD(600)
# HEK293 = assay: cells; type: functional, Homo sapiens, ATCC CRL1573; details: Homo sapiens, ATCC CRL1573, HEK293; ASSAY_TEST Inhibition of Cell Viability; detection method Resazurin; Fluorescence (ex560/em590); MEDIA DMEM with 10% FBS; plate type 384well; TC; CORNING #3712; time 18 hr
# Escherichia coli = assay: microbe, parasite or virus in culture; details: ATCC 25922, 18 h, ASSAY_TEST Inhibition of Bacterial Growth, detection method Absorption (OD600), MEDIA CAMHB, plate type 384well, NBS, CORNING #3640
# Description: Antibacterial activity against Escherichia coli ATCC 25922 (CO-ADD:GN_001); MIC in CAMBH media using NBS plates, by OD(600)
# Klebsiella pneumoniae = assay: microbe, parasite or virus in culture; details: ATCC 700603, 18 h, ASSAY_TEST Inhibition of Bacterial Growth, detection method Absorption (OD600), MEDIA CAMHB, plate type 384well, NBS, CORNING #3640
# Description: Antibacterial activity against Klebsiella pneumoniae MDR ATCC 70063 (CO-ADD:GN_003); MIC in CAMBH media using NBS plates, by OD(600)
# Acinetobacter baumannii = assay: microbe, parasite or virus in culture; details: ATCC 19606, 18 h, ASSAY_TEST Inhibition of Bacterial Growth, detection method Absorption (OD600), MEDIA CAMHB, plate type 384well, NBS, CORNING #3640
# Description: Antibacterial activity against Acinetobacter baumannii ATCC 19606 (CO-ADD:GN_034); MIC in CAMBH media using NBS plates, by OD600
# Description for Cryptococcus neoformans: Antifungal activity against Cryptococcus neoformans H99 ATCC 208821 (CO-ADD:FG_002); MIC in YNB media using NBS plates, by Resazurin OD(600-570)
Structure (SMILES),MIC (Candida albicans) [µM],MIC (Staphylococcus aureus) [µM],MIC (Pseudomonas aeruginosa) [µM],CC50 (HEK293) [µM],MIC (Escherichia coli) [µM],MIC (Klebsiella pneumoniae) [µM],MIC (Acinetobacter baumannii) [µM],MIC (Cryptococcus neoformans) [µM]
CCN1CCN(c2cc3c(cc2F)c(=O)c(C(=O)O)cn3C2CC2)CC1 [ENROFLOXACIN],> 10,0.312,0.312,> 10,≤ 0.0781,2.5,5,> 10
CCc1nc(N)nc(N)c1-c1ccc(Cl)cc1 [PYRIMETHAMINE],> 10,5,> 10,> 10,> 10,> 10,> 10,> 10
O=c1[nH]c(=O)n(C2CC(O)C(CO)O2)cc1F (stereo not drawn),> 10,≤ 0.0781,> 10,2.37,10,5,> 10,> 10
COCc1c(C(C)C)nc(C(C)C)c(/C=C/[C@@H](O)C[C@@H](O)CC(=O)O)c1-c1ccc(F)cc1 [CERIVASTATIN SODIUM],5,> 10,> 10,> 10,> 10,> 10,> 10,5
NC(=O)OCC(COC(N)=O)c1ccccc1,> 10,> 10,> 10,> 10,> 10,> 10,> 10,> 10
O=C1CN(/N=C/c2ccc([N+](=O)[O-])o2)C(=O)N1 [NITROFURANTOIN],> 10,> 10,> 10,> 10,> 10,> 10,> 10,> 10
CO[C@H]1/C=C/O[C@@]2(C)Oc3c(C)c(O)c4c(O)c(c(C=NN5CCN(C)CC5)c(O)c4c3C2=O)NC(=O)/C(C)=C\C=C\[C@H](C)[C@H](O)[C@@H](C)[C@@H](O)[C@@H](C)[C@H](OC(C)=O)[C@@H]1C,> 10,≤ 0.0781,2.5,> 10,10,> 10,> 10,> 10
COc1c(N2C[C@@H]3CCCN[C@@H]3C2)c(F)cc2c(=O)c(C(=O)O)cn(C3CC3)c12 [MOXIFLOXACIN HYDROCHLORIDE],> 10,0.156,0.625,> 10,≤ 0.0781,5,2.5,> 10
Cc1noc(NS(=O)(=O)c2ccc(N)cc2)c1C [SULFISOXAZOLE],> 10,> 10,> 10,> 10,> 10,> 10,> 10,> 10
CC(C)n1c(/C=C/C(O)CC(O)CC(=O)O)c(-c2ccc(F)cc2)c2ccccc21 (stereo not drawn) [FLUVASTATIN],5,> 10,> 10,> 10,> 10,> 10,> 10,> 10
CON=C(C(=O)N[C@@H]1C(=O)N2C(C(=O)O)=C(COC(N)=O)CS[C@H]12)c1ccco1,> 10,5,> 10,> 10,10,> 10,> 10,> 10
